Results reported in US9040501B2, “Compositions and methods for treating cancer” (Eisai Inc., priority 2009, dated 2015).

Experiments:
[1] = Stability in simulated gastric fluid at 37° C. (HPLC); assay type: physicochemical
Excerpt: […]. See Kararli, T. T. Comparison of the GI anatomy, physiology, and biochemistry of humans and commonly used laboratory animals. BioPharm & DrugDispos. 16:351-380, 1995, which is hereby wholly incorporated by reference. The gastric pH in fasted monkeys has been reported to have a similar range of 1-3. See Kondo, H. et al. Characteristics of the gastric pH profiles of unfed and fed cynomolgus monkeys as pharmaceutical product development subjects. BioPharm & DrugDispos. 24:45-51, 2003, which is hereby wholly incorporated by reference.
Materials: Simulated gastric fluid (SGF) was prepared by mixing the following into 100 mL of HPLC grade (or purified) water: 200 mg of sodium chloride and 1.87 mL of a 37.52% HCl stock solution.
The HPLC analyses were conducted using a Waters UPLC solvent delivery system with Corona CAD detection. The HPLC Column (Waters Atlantis HHS T3 2.1×100 mm, 1.8 um) was maintained at 40° C. and preequilibrated with a solution containing 98% water and 2% acetonitrile. The temperature controlled auto-sampler was maintained at 37° C. The flow rate for the Water/MeCN mobile phase was 0.65 mL/min, with a gradient following sample injection (5 μL) as follows: […]
The Water/MeCN mobile phase was applied to the column with the above described flow rate and gradient and the HPLC chromatograms were collected. After 3.5 minutes, the column was reequilibrated with 98% water/2% MeCN for 1.5 minutes.

cytidine deaminase (CDA) = cytidine deaminase (CDA) (Homo sapiens (Human), UniProt P32320); assay: Effect of ER-876437 on the half-life of cytarabine in the presence of CDA in Tris-HCl buffer at 37° C.
[2] = ER-876437 1.0 mg/kg/Veh, on autopsy

Chain of cytidine deaminase (CDA) (P32320 whole entry): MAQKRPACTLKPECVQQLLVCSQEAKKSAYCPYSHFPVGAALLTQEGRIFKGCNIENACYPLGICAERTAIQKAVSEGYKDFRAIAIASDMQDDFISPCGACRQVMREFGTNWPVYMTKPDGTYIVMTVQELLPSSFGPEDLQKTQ
Method for murine lymphoma L1210: Preparation of L1210 Cells: L1210 ascitic cells were prepared by passaging them in mice at least three times as follows. Each CD2F1 female mouse was intraperitoneally (IP) injected with about 10^5 L1210 ascitic cells. After one week, the mouse was sacrificed (asphyxiation via CO2). The mouse was placed on its back, its belly surface was cleaned with alcohol wipes, and a small incision was made into the peritoneal cavity. […] Diluted ascites (diluted 1:10 again) were counted on a hematocytometer and the number of cells per mL was calculated. About 10^5 L1210 cells were used for a subsequent passage for another mouse passage. Or, a stock of L1210 ascites in BSA solution was diluted to 1×10^4 cells/0.1 ml for use in the study mice.
The mice were prepared with intravenous (IV) injection of L1210 ascites (prepared as described above) one day prior to commencing the dosing. […] The total IV injection for all mice took about 50 minutes.
Decitabine was prepared fresh twice a day, just prior to dosing. All solutions were stored on ice while dosing. Mice were dosed (intraperitoneally (IP) or per os (orally, PO)) twice a day (8 hours apart) for 4 consecutive days.
Dead mice were autopsied and observed for the presence of tumors in organs.
Preparation of study mice with IV injection of L1210 ascites took about 60 minutes. […] All solutions were stored on ice while dosing. Mice were dosed (IP or PO) twice a day (7 or 8 hours apart) for 4 consecutive days.

SMILES: O=C1NCC=CCN1[C@@H]1O[C@H](CO)[C@@H](O)C1(F)F [ER-876437, 1-((2R,4R,5R)-3,3-difluoro-4-hydroxy-5-(hydroxymethyl)tetrahydrofuran-2-yl)-3,4-dihydro-1H-1,3-diazepin-2(7H)-one]
- % ER-876437 (peak retention time: 2.90 min) ([1]; SGF at 37° C., analysis time 0:00:30): 85.88%
- % ER-876437 (peak retention time: 2.90 min) ([1]; SGF at 37° C., analysis time 0:06:08): 85.72%
- % ER-876437 (peak retention time: 2.90 min) ([1]; SGF at 37° C., analysis time 0:11:45): 86.46%
- % ER-876437 (peak retention time: 2.90 min) ([1]; SGF at 37° C., analysis time 0:17:24): 86.38%
- % ER-876437 (peak retention time: 2.90 min) ([1]; SGF at 37° C., analysis time 0:23:02): 83.22%
- % ER-876437 (peak retention time: 2.90 min) ([1]; SGF at 37° C., analysis time 0:28:39): 83.48%
- % ER-876437 (peak retention time: 2.90 min) ([1]; SGF at 37° C., analysis time 0:34:17): 83.80%
- % ER-876437 (peak retention time: 2.90 min) ([1]; SGF at 37° C., analysis time 0:39:54): 84.16%
- % ER-876437 (peak retention time: 2.90 min) ([1]; SGF at 37° C., analysis time 0:45:32): 82.62%
- % ER-876437 (peak retention time: 2.90 min) ([1]; SGF at 37° C., analysis time 0:51:10): 82.41%
- % ER-876437 (peak retention time: 2.90 min) ([1]; SGF at 37° C., analysis time 0:56:47): 82.45%
- % ER-876437 (peak retention time: 2.90 min) ([1]; SGF at 37° C., analysis time 1:02:26): 82.45%
- % ER-876437 (peak retention time: 2.90 min) ([1]; SGF at 37° C., analysis time 1:08:04): 82.55%
- % ER-876437 (peak retention time: 2.90 min) ([1]; SGF at 37° C., analysis time 1:13:41): 83.11%
- % ER-876437 (peak retention time: 2.90 min) ([1]; SGF at 37° C., analysis time 1:19:19): 81.82%
- % ER-876437 (peak retention time: 2.90 min) ([1]; SGF at 37° C., analysis time 1:24:56): 81.24%
- % ER-876437 (peak retention time: 2.90 min) ([1]; SGF at 37° C., analysis time 1:30:33): 79.20%
- % ER-876437 (peak retention time: 2.90 min) ([1]; SGF at 37° C., analysis time 1:36:10): 79.14%
- % ER-876437 (peak retention time: 2.90 min) ([1]; SGF at 37° C., analysis time 1:41:47): 78.47%
- % ER-876437 (peak retention time: 2.90 min) ([1]; SGF at 37° C., analysis time 1:47:24): 77.88%
- % ER-876437 (peak retention time: 2.90 min) ([1]; SGF at 37° C., analysis time 1:53:02): 78.29%
- % ER-876437 (peak retention time: 2.90 min) ([1]; SGF at 37° C., analysis time 1:58:39): 78.56%
- % ER-876437 (peak retention time: 2.90 min) ([1]; SGF at 37° C., analysis time 2:04:16): 77.21%
- % ER-876437 (peak retention time: 2.90 min) ([1]; SGF at 37° C., analysis time 2:21:12): 76.06%
- % ER-876437 (peak retention time: 2.90 min) ([1]; SGF at 37° C., analysis time 2:26:50): 77.34%
- % ER-876437 (peak retention time: 2.90 min) ([1]; SGF at 37° C., analysis time 2:49:21): 75.34%
- % ER-876437 (peak retention time: 2.90 min) ([1]; SGF at 37° C., analysis time 3:17:30): 72.37%
- % ER-876437 (peak retention time: 2.90 min) ([1]; SGF at 37° C., analysis time 3:51:16): 50.13%
- % ER-876437 (peak retention time: 2.90 min) ([1]; SGF at 37° C., analysis time 4:19:26): 51.88%
- % ER-876437 (peak retention time: 2.90 min) ([1]; SGF at 37° C., analysis time 4:47:38): 48.95%
- % ER-876437 (peak retention time: 2.90 min) ([1]; SGF at 37° C., analysis time 5:21:25): 45.19%
- % ER-876437 (peak retention time: 2.90 min) ([1]; SGF at 37° C., analysis time 5:49:35): 47.44%
- % ER-876437 (peak retention time: 2.90 min) ([1]; SGF at 37° C., analysis time 6:17:45): 44.94%
- % ER-876437 (peak retention time: 2.90 min) ([1]; SGF at 37° C., analysis time 6:51:31): 43.29%
- % ER-876437 (peak retention time: 2.90 min) ([1]; SGF at 37° C., analysis time 7:19:40): 41.85%
- % ER-876437 (peak retention time: 2.90 min) ([1]; SGF at 37° C., analysis time 7:47:22): 41.72%
- % ER-876437 (peak retention time: 2.90 min) ([1]; SGF at 37° C., analysis time 8:21:11): 36.89%
- % ER-876437 (peak retention time: 2.90 min) ([1]; SGF at 37° C., analysis time 8:49:19): 37.52%
- % ER-876437 (peak retention time: 2.90 min) ([1]; SGF at 37° C., analysis time 9:17:30): 36.34%
- % ER-876437 (peak retention time: 2.90 min) ([1]; SGF at 37° C., analysis time 9:51:17): 34.61%
- % ER-876437 (peak retention time: 2.90 min) ([1]; SGF at 37° C., analysis time 10:19:29): 31.94%
- % ER-876437 (peak retention time: 2.90 min) ([1]; SGF at 37° C., analysis time 10:47:39): 32.33%
- % ER-876437 (peak retention time: 2.90 min) ([1]; SGF at 37° C., analysis time 11:15:53): 29.85%
- % ER-876437 (peak retention time: 2.90 min) ([1]; SGF at 37° C., analysis time 11:49:44): 29.94%
- % ER-876437 (peak retention time: 2.90 min) ([1]; SGF at 37° C., analysis time 12:17:54): 27.99%
- % ER-876437 (peak retention time: 2.90 min) ([1]; SGF at 37° C., analysis time 12:46:10): 27.39%
- % ER-876437 (peak retention time: 2.90 min) ([1]; SGF at 37° C., analysis time 13:20:01): 26.14%
- % ER-876437 (peak retention time: 2.90 min) ([1]; analysis time 0:00:00, initial sample in water): 92.18%
- half-life ([1]; simulated gastric fluid (pH 1.45) at 37° C.): 4 to 6 h
- Mean Liver wts (g) ± SD (murine lymphoma L1210; [2]): 2.04 ± 0.15 g
- Mean Spleen wts (g) ± SD (murine lymphoma L1210; [2]): 0.32 ± 0.02 g
- Mean Survival (days) ± SD (murine lymphoma L1210; ER-876437 1.0 mg/kg/Veh, twice a day (7 hours apart), 4 days): 8.4 ± 0.55 days
- % ILS (Increased Life Span) (murine lymphoma L1210; ER-876437 1.0 mg/kg/Veh, vs vehicle group): 5.00%
- minimally effective dose (murine lymphoma L1210; with 0.1 mg/kg decitabine PO, L1210 survival model): 0.1 mg/kg
- cytarabine remaining (cytidine deaminase (CDA); CDA plus ER-876437 in the incubation mixture, after 52 h): greater than 95%
- inhibition of the effect of CDA on T1/2 of cytarabine (cytidine deaminase (CDA); Tris-HCl buffer at 37° C.): nearly completely inhibited
- levels of ER-876437 (cytidine deaminase (CDA); after 52 hours of exposure to CDA with cytarabine): not affected
